Measurements published in US20070093520A1, “Method of treatment of diarrhea-predominant irritable bowel syndrome in a subject” (priority 2005, published 2007).

Assays:
[1] = tested on: diarrhea-predominant IBS subjects; experiment: 3008 Study: 12-lead ECG abnormalities; format: in vivo, human; settings: 3007 Study
Protocol: Resting 12-lead ECGs were performed at Day 1 (Visit 5 of the core protocol), Months 1, 6, and 12 (end of study or early termination visit). A centralized ECG service was used to evaluate all ECG tracings to supply consistent standardized ECG interpretation.
For by-visit assessments, visit windows were assigned to the post-Baseline assessments as follows (vital signs, laboratory tests, and ECGs):
All analyses and summaries for ECG assessments were based on the evaluation performed in the central ECG laboratory.
Summary statistics are presented for PR, QRS, QT, and QTc intervals (Bazett and Fridericia formulas) and heart rate at each visit and at Endpoint, as well as for change from Baseline results at each post-Baseline visit and at Endpoint. Bazett's and Fridericia's QTc intervals were calculated based on the following formulas: Bazett: QTc intervals=QT/√RR Fridericia: QTc intervals=QT/^3√RR
Markedly abnormal ECG parameter values collected after the first dose of study medication and within 30 days of the last dose of study medication were summarized overall. The following criteria were applied to identify markedly abnormal parameter values: • PR ≧0.210 sec; • QRS ≧0.120 sec; • QTc >0.440 sec;
The incidence of treatment-emergent ECG abnormalities is presented overall and by type of abnormality. A treatment-emergent ECG abnormality was an abnormality identified by the ECG core laboratory that was not present at baseline (e.g., prior to the entry into core Study 3006), and was observed on or after initiation of study medication and up to 30 days after discontinuation of study medication. The incidence of treatment-emergent ECG abnormalities is presented by time interval, as well as overall for the entire treatment period. The incidence of treatment-emergent abnormalities is also presented in more general categories (e.g., presenting incidence of treatment-emergent myocardial infarction overall as well as by location), depending on whether it mitigates the interpretation.

[2] = tested on: diarrhea-predominant IBS subjects; experiment: 3007 Study: laboratory marked abnormalities; format: in vivo, human; settings: Study 3007
Protocol: Subjects were encouraged to fast at least six hours prior to laboratory samples being drawn. Laboratory safety tests were performed at Day 1 (Visit 5 of the core protocol), Months 1, 6, and 12 (end of study or at the early termination visit). Blood and urine were analyzed for:
• Prothrombin time (PT) (only before colonoscopy, as per clinical practice) • Hemoglobin • Hematocrit • Red blood cell count (RBC) • White blood cell count (WBC) • Differential blood count • Platelet count Blood Chemistry: • Glucose • Creatinine • Blood urea nitrogen (BUN) • Creatine kinase (CK) • Alkaline phosphatase (AP) • Total bilirubin • Alanine aminotransferase (ALT/SGPT) • Aspartate aminotransferase (AST/SGOT) • Gamma-glutamyltransferase (GGT) • Triglycerides • Cholesterol • Total protein • Uric acid • Sodium • Potassium • Calcium • Quantitative beta human chorionic gonadotrophin (β-HCG) (at every visit) • Thyroid stimulating hormone (visit 1 only) Urine: • Urobilinogen • Blood • Bilirubin • Ketones • Glucose • Protein • Nitrite • Leukocytes • pH • Dipstick pregnancy test (Day 1 only, if necessary) Stool: • Parasite, ova and stool culture (visit 1 only, if necessary) • Occult blood (analysis at each visit)
Laboratory data are presented in conventional units. Only one central laboratory was used for each laboratory parameter, thus no laboratory normalization was carried out.
For Study 3007, “baseline” was defined as Visit 1 of core Study 3006 for subjects randomized to the cilansetron treatment group in Study 3006 and as the last post-Baseline visit of Study 3006 (normally Visit 5) for subjects randomized to the placebo group in Study 3006.
Summary statistics are presented for all hematology and chemistry parameters at each analysis timepoint and at Endpoint, as well as for change from Baseline results at each post-Baseline analysis timepoint and at Endpoint. For laboratory assessments that were gender specific, summaries were presented separately for males and females. A listing of laboratory assessments for hematology, chemistry, and urinalysis parameters is presented. The following categories were used for the urinalysis parameter summaries: • pH: ≦5.0, >5.0 to ≦6.0, >6.0 to ≦7.0, and >7.0 • glucose, total protein, ketones, total bilirubin, nitrite, RBC (erythrocytes), and urobilinogen: negative and other (consisting of ‘trace’, ‘positive’, ‘+’, ‘++’, ‘+++’, or ‘++++’) • WBC (leukocytes): negative, positive
The overall incidence of post-Baseline marked abnormalities for hematology and chemistry parameters is also presented. Where applicable, the incidence of post-Baseline marked abnormalities is presented separately by whether the value was abnormally high or low. Any post-Baseline markedly abnormal laboratory measurement collected after the first dose of cilansetron and within 30 days of the last dose of cilansetron was included. However, assessments which were done more than 30 days after last subject visit and after database lock were not included in the analysis. Subjects were counted at most once for the post-Baseline marked abnormality for each laboratory parameter.

[3] = in vivo
Protocol: One subject took fluvoxamine while taking cilansetron 2 mg TID.

## Cc1nccn1C[C@H]1CCc2c(c3cccc4c3n2CCC4)C1=O [cilansetron, (R)-(−)-4,5,6,8,9,10-hexahydro-10-[(2-methyl-1H-imidazol-1-yl)methyl]-11H-pyrido-[3,2,1-jk]-carbazol-11-one]
[1]
  ECG abnormality: early-repolarization-normal variant: > 10%
  ECG abnormality: sinus arrhythmia: > 10%
  ECG abnormality: sinus bradycardia: > 10%
[1]; 30 subjects
  incidence of treatment-emergent markedly abnormal QTc(F): 2%
[1]; 105 subjects
  incidence of treatment-emergent markedly abnormal QTc(B): 8%
[2]
  post-Baseline markedly high CK: 3%
  post-Baseline markedly high eosinophils: 1%
  post-Baseline markedly high triglycerides: 3%
  post-Baseline markedly high uric acid: 1%
[2]; females
  post-Baseline markedly high GGT: 5%
[2]; males
  post-Baseline markedly high GGT: 7%
[2]; overall
  post-Baseline markedly high GGT: 6%
[3]
  increase of cilansetron plasma levels: approximately six to seven
